Experimental data taken from patent US10335409B2 (priority 2012, dated 2019).
pEC50, pKi: −log10 of the molar value.

Key:
[1] = molecular target: HCV NS3 protease domain genotype 1b (Hepatitis C virus genotype 1b (isolate Con1), UniProt Q9WMX2, E1202G); assay: Ki determination, NS3 protease genotype 1b (fluorogenic depsipeptide substrate); format: biochemical; conditions: 50 pM enzyme, NS4A peptide
Procedure: Purified NS3 protease domain (amino acids 1-181) of the genotype 1b and 3a virus were generated as above.
Reactions were run at room temperature in buffer consisting of 50 mM HEPES, 40% glycerol, 0.05% Triton X-100, 10 mM DTT, and 10% DMSO. The final assay solutions contained 50 pM NS3 genotype 1 b protease or 200 pM genotype 3a protease, 20 μM NS4A peptide, and 4 μM substrate (genotype 1b) or 2 μM substrate (genotype 3a). Inhibitor concentrations varied from 100 nM to 5 pM in 3-fold dilutions, and no-inhibitor controls were included.
Compound dilutions were made in DMSO at 20× final concentration. Reaction mixtures were prepared in 96-well assay plates. A solution of enzyme and NS4A peptide in assay buffer (25 μL volume with both reagents at 4× final concentration) was mixed with 45 μL assay buffer and 5 μL of either inhibitor or DMSO, and pre-incubated at room temperature for 1 hour. The reaction was started by addition of 25 μL substrate solution at 4× final concentration. Plates were mixed vigorously for 5-10 seconds and reactions were allowed to proceed for 90 minutes, fluorescence was measured every 30 s between 90 and 120 minutes reaction time using a Tecan InfiniTe M1000 or PerkinElmer Envision multimode plate reader with an excitation wavelength of 340 nm and an emission wavelength of 490 nm.
To determine the Ki, rates were plotted as a function of inhibitor concentration, and the data were fit with equation 1 (Morrison, J. F., Biochimica et Biophysica Acta 1969, 185, 269-286) to calculate Ki^app using GraphPad Prism 5. […] Ki was calculated from Ki^app/(1+[[S]/Km]).

[2] = molecular target: HCV NS3 protease domain genotype 3a (Hepatitis C virus genotype 3a, UniProt Q81258); assay: Ki determination, NS3 protease genotype 3a (fluorogenic depsipeptide substrate); format: biochemical; conditions: 200 pM enzyme, NS4A peptide
How it was run: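 The NS3 protease domain (aa 1-181) with 20 μM NS4A peptide was used at 50 pM with 4 μM substrate (1b) or at 200 pM with 2 μM substrate (3a). Inhibitors (100 nM-5 pM) were pre-incubated 1 h at room temperature in HEPES/glycerol/DTT buffer with 10% DMSO. Steady-state rates (90-120 min) gave Ki via the Morrison equation, corrected for active enzyme and [S]/Km.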

[3] = system: genotype 1a (H77) stable HCV replicon in Huh-7-derived cells; assay: Stable subgenomic HCV replicon EC50, genotype 1a (Renilla luciferase); format: cell-based, hepatitis C virus; conditions: Hepatitis C virus, stable replicon genotype 1a, 72 h, read-out: EC50 1A RLUC
How it was run: (§1)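 Compounds, three-fold diluted, were applied to Huh-7-derived cells harbouring luciferase replicons (genotype 1a H77, 1b Con1, 2a JFH-1, 4a ED43, with strain-specific adaptive mutations). Seventy-two hours later, intracellular replication was gauged by Renilla luciferase activity and EC50 derived by regression.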

[4] = system: genotype 1b (Con1) stable HCV replicon in Huh-7-derived cells; assay: Stable subgenomic HCV replicon EC50, genotype 1b (Renilla luciferase); format: cell-based, hepatitis C virus; conditions: Hepatitis C virus, stable replicon genotype 1b, 72 h, read-out: EC50 1B RLUC
How it was run: as §1

[5] = system: genotype 2a (JFH-1) stable HCV replicon in Huh-7-derived cells; assay: Stable subgenomic HCV replicon EC50, genotype 2a (Renilla luciferase); format: cell-based, hepatitis C virus; conditions: Hepatitis C virus, stable replicon genotype 2a, 72 h, read-out: EC50 2A RLUC
How it was run: as §1

[6] = system: genotype 3a (S52) stable HCV replicon in Huh-7-derived cells; assay: Stable subgenomic HCV replicon EC50, genotype 3a (Renilla luciferase); format: cell-based, hepatitis C virus; conditions: Hepatitis C virus, 72 h, read-out: EC50 3A RLUC
[7] = system: genotype 4a (ED43) stable HCV replicon in Huh-7-derived cells; assay: Stable subgenomic HCV replicon EC50, genotype 4a (Renilla luciferase); format: cell-based, hepatitis C virus; conditions: Hepatitis C virus, 72 h, read-out: EC50 4A RLUC
How it was run: as §1

[8] = system: genotype 1a (H77) wild type transient HCV replicon in Huh-7-derived cells; assay: Transient-transfected HCV replicon EC50, genotype 1a wild type; format: cell-based, hepatitis C virus; conditions: Hepatitis C virus, 72 h, transient-transfected replicon genotype 1a wild type, read-out: EC50 1A WT
[9] = system: genotype 1a NS3/4a protease inhibitor resistant variant R155K transient HCV replicon in Huh-7-derived cells; assay: Transient-transfected HCV replicon EC50, genotype 1a R155K; format: cell-based, hepatitis C virus; conditions: Hepatitis C virus, 72 h, read-out: EC50 1A R155K, transient-transfected replicon genotype 1a R155K resistant variant, 72 h
[10] = system: genotype 1b (Con1) wild type transient HCV replicon in Huh-7-derived cells; assay: Transient-transfected HCV replicon EC50, genotype 1b wild type; format: cell-based, hepatitis C virus; conditions: Hepatitis C virus, 72 h, transient-transfected replicon genotype 1b wild type, read-out: EC50 1B WT
[11] = system: genotype 1b NS3/4a protease inhibitor resistant variant D168A transient HCV replicon in Huh-7-derived cells; assay: Transient-transfected HCV replicon EC50, genotype 1b D168A; format: cell-based, hepatitis C virus; conditions: Hepatitis C virus, 72 h, read-out: EC50 1B D168A, transient-transfected replicon genotype 1b D168A resistant variant, 72 h

HCV NS3 protease domain genotype 3a, sequence (Q81258 whole entry, looked up, the tested form may be a part): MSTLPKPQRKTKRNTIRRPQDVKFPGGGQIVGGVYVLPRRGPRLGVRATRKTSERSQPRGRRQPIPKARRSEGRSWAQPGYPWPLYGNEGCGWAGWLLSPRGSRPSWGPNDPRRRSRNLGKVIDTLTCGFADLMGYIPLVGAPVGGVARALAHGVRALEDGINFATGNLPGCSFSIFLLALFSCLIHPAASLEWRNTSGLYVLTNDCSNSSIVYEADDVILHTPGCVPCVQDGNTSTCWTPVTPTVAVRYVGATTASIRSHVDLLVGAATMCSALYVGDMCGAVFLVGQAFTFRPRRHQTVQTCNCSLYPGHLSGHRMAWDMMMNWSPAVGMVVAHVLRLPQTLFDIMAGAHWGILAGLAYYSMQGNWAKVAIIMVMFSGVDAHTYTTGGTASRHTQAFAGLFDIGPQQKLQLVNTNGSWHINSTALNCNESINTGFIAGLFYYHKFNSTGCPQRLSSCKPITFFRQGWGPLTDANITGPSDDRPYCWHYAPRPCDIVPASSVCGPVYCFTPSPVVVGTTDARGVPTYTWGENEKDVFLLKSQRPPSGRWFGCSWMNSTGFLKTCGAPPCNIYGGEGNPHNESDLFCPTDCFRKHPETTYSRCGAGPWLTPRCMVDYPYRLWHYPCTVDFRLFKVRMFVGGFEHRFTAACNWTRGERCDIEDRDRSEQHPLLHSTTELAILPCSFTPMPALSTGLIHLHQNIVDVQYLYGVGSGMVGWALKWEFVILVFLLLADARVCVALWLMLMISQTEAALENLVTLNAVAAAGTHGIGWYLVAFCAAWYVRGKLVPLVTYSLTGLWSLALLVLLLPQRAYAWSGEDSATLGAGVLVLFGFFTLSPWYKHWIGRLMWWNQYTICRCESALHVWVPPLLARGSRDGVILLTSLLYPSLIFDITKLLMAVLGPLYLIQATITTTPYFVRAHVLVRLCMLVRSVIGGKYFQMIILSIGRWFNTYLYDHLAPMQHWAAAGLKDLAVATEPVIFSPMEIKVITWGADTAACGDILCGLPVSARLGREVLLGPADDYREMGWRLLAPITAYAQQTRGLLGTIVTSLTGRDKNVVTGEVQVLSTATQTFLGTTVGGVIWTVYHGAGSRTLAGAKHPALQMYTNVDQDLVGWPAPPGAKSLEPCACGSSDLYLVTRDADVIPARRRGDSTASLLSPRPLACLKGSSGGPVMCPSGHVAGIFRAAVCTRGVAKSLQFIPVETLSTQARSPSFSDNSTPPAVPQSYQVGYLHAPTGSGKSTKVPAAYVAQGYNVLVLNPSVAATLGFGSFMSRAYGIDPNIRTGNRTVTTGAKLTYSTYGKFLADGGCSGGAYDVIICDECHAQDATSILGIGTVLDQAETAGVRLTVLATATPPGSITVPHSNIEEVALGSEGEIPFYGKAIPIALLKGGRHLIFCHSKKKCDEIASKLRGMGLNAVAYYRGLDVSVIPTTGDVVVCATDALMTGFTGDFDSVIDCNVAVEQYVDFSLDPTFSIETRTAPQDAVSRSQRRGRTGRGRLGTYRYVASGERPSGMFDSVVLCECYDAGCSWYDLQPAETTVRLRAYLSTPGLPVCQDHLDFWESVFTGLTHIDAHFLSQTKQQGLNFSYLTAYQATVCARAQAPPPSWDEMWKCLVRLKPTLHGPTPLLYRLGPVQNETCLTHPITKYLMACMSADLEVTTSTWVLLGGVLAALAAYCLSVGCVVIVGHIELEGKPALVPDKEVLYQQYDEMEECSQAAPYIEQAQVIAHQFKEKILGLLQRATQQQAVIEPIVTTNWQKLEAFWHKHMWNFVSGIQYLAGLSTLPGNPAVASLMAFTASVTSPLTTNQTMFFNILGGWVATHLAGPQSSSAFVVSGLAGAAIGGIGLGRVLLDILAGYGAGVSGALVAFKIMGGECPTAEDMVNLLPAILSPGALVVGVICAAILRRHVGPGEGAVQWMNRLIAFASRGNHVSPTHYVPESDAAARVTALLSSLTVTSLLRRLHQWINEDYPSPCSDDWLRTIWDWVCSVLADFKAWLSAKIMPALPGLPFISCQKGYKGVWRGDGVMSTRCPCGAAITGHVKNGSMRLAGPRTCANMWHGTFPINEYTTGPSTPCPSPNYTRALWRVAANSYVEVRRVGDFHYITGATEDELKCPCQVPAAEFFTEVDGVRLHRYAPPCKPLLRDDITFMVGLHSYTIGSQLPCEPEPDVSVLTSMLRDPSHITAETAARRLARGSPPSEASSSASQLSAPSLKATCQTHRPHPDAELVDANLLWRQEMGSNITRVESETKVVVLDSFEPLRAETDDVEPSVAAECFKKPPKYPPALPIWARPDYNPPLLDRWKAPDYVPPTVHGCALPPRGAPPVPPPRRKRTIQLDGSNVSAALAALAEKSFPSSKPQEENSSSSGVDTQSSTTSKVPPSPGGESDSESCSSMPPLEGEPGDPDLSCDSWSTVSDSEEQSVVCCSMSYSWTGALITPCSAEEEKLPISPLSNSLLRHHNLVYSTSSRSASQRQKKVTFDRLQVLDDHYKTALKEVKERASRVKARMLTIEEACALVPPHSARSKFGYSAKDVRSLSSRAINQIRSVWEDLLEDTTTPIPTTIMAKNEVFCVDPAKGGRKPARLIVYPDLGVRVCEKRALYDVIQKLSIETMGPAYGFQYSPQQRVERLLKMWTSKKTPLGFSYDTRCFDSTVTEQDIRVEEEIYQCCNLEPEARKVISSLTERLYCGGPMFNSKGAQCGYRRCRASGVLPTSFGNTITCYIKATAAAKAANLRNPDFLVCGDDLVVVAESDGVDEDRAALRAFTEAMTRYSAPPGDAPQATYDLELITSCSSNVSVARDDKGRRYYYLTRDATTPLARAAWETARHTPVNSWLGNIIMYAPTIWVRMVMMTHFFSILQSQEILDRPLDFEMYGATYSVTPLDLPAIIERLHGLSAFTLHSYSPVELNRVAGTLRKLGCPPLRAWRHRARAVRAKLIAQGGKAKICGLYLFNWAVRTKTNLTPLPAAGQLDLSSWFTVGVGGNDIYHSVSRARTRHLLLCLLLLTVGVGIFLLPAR
HCV NS3 protease domain genotype 1b, sequence (Q9WMX2 1027-1208 E1202G): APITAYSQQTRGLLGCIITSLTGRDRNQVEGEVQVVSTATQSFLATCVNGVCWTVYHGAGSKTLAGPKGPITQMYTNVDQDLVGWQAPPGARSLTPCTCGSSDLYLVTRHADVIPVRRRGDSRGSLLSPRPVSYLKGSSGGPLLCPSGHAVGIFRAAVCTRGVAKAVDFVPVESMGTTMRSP

COc1ccc2nc3c(nc2c1)O[C@H]1CN(C(=O)[C@H](C(C)(C)C)NC(=O)O[C@@H]2CCN(C(C)=O)C2CCCCC3)[C@H](C(=O)N[C@]2(C(=O)NS(=O)(=O)C3(C)CC3)C[C@H]2C(F)F)[C@@H]1C (stereo partly drawn) [Example 80, (3aR,7S,10S,11S,12R)-1-acetyl-7-tert-butyl-N-[(1R,2R)-2-(difluoromethyl)-1-{[(1-methylcyclopropyl)sulfonyl]carbamoyl}cyclopropyl]-16-methoxy-11-methyl-5,8-dioxo-1,2,3,3a,5,6,7,8,11,12,20,21,22,23,24,24a-hexadecahydro-10H-9,12-methanopyrrolo[2′,3′:18,19][1,10,3,6]dioxadiazacyclononadecino[11,12-b]quinoxaline-10-carboxamide]
pKi [1]: 9.31
pKi [2]: 7.89
pEC50 [3]: 5.95
pEC50 [4]: 6.46
pEC50 [5]: 6.13
pEC50 [6]: 4.35
pEC50 [7]: 5.93
pEC50 [8]: 6.39
pEC50 [9]: 5.54
pEC50 [10]: 7.28
pEC50 [11]: 6.35

CC[C@@H]1[C@@H]2CN(C(=O)[C@H](C(C)(C)C)NC(=O)O[C@@H]3[C@H]4CC[C@H](C4)[C@H]3CCCCCc3nc4ccc(OC)cc4nc3O2)[C@@H]1C(=O)N[C@]1(C(=O)NS(=O)(=O)C2CC2)C[C@H]1C(F)F [Example 13, (1R,4S,4aR,8S,11S,12S,13R,25aR)-8-tert-butyl-N-[(1R,2R)-1-[(cyclopropylsulfonyl)carbamoyl]-2-(difluoromethyl)cyclopropyl]-12-ethyl-17-methoxy-6,9-dioxo-2,3,4,4a,6,7,8,9,12,13,21,22,23,24,25,25a-hexadecahydro-1H,11H-1,4:10,13-dimethanoquinoxalino[2,3-k][1,10,3,6]benzodioxadiazacyclononadecine-11-carboxamide]
pKi [1]: 10.40
pKi [2]: 9.74
pEC50 [3]: 7.89
pEC50 [4]: 8.02
pEC50 [5]: 7.59
pEC50 [6]: 6.16
pEC50 [7]: 7.96
pEC50 [8]: 8.07
pEC50 [9]: 7.23
pEC50 [10]: 8.51
pEC50 [11]: 6.68

COc1ccc2nc3c(nc2c1)O[C@H]1CN(C(=O)[C@H](C2(C)CCCC2)NC(=O)O[C@@H]2C[C@H]2CCCCC3)[C@H](C(=O)N[C@]2(C(=O)NS(=O)(=O)C3(C)CC3)C[C@H]2C(F)F)[C@@H]1C [Example 38, (1aR,5S,8S,9S,10R,22aR)—N-[(1R,2R)-2-(difluoromethyl)-1-{[(1-methylcyclopropyl)sulfonyl]carbamoyl}cyclopropyl]-14-methoxy-9-methyl-5-(1-methylcyclopentyl)-3,6-dioxo-1,1a,3,4,5,6,9,10,18,19,20,21,22,22a-tetradecahydro-8H-7,10-methanocyclopropa[18,19][1,10,3,6]dioxadiazacyclononadecino[11,12-b]quinoxaline-8-carboxamide]
pKi [1]: 10.52
pKi [2]: 9.15
pEC50 [3]: 8.11
pEC50 [4]: 8.38
pEC50 [5]: 8.27
pEC50 [6]: 6.82
pEC50 [7]: 8.26
pEC50 [8]: 8.35
pEC50 [9]: 8.08
pEC50 [10]: 8.55
pEC50 [11]: 7.60

CC[C@@H]1[C@@H]2CN(C(=O)[C@H](C(C)(C)C)NC(=O)O[C@@H]3CCC[C@H]3CCCCCc3nc4ccc(OC)cc4nc3O2)[C@@H]1C(=O)N[C@]1(C(=O)NS(=O)(=O)C2CC2)C[C@H]1C(F)F [Example 5, (3aR,7S,10S,11S,12R,24aR)-7-tert-butyl-N-[(1R,2R)-1-[(cyclopropylsulfonyl)carbamoyl]-2-(difluoromethyl)cyclopropyl]-11-ethyl-16-methoxy-5,8-dioxo-1,2,3,3a,5,6,7,8,11,12,20,21,22,23,24,24a-hexadecahydro-10H-9,12-methanocyclopenta[18,19][1,10,3,6]dioxadiazacyclononadecino[11,12-b]quinoxaline-10-carboxamide]
pKi [1]: 10.40
pKi [2]: 9.77
pEC50 [3]: 8.06
pEC50 [4]: 8.13
pEC50 [5]: 7.96
pEC50 [6]: 6.39
pEC50 [7]: 8.16
pEC50 [8]: 8.43
pEC50 [9]: 7.77
pEC50 [10]: 8.49
pEC50 [11]: 7.04

CCC[C@@H]1[C@@H]2CN(C(=O)[C@H](C(C)(C)C)NC(=O)O[C@@H]3C[C@H]3CCCCCc3nc4ccc(OC)cc4nc3O2)[C@@H]1C(=O)N[C@]1(C(=O)NS(=O)(=O)C2(C)CC2)C[C@H]1C(F)F [Example 29, (1aR,5S,8S,9S,10R,22aR)-5-tert-butyl-N-[(1R,2R)-2-(difluoromethyl)-1-{[(1-methylcyclopropyl)sulfonyl]carbamoyl}cyclopropyl]-14-methoxy-3,6-dioxo-9-propyl-1,1a,3,4,5,6,9,10,18,19,20,21,22,22a-tetradecahydro-8H-7,10-methanocyclopropa[18,19][1,10,3,6]dioxadiazacyclononadecino[11,12-b]quinoxaline-8-carboxamide]
pKi [1]: 10.22
pKi [2]: 9.92
pEC50 [3]: 8.00
pEC50 [4]: 8.05
pEC50 [5]: 7.96
pEC50 [6]: 6.86
pEC50 [7]: 8.14
pEC50 [8]: 8.32
pEC50 [9]: 7.96
pEC50 [10]: 8.51
pEC50 [11]: 7.32

COc1ccc2nc3c(nc2c1)O[C@H]1CN(C(=O)[C@H](C(C)(C)C)NC(=O)O[C@@H]2C[C@H]2CCCCC3)[C@H](C(=O)N[C@]2(C(=O)NS(=O)(=O)C3(C)CC3)C[C@H]2C(F)F)[C@@H]1CC(C)C [Example 30, (1aR,5S,8S,9S,10R,22aR)-5-tert-butyl-N-[(1R,2R)-2-(difluoromethyl)-1-{[(1-methylcyclopropyl)sulfonyl]carbamoyl}cyclopropyl]-14-methoxy-9-(2-methylpropyl)-3,6-dioxo-1,1a,3,4,5,6,9,10,18,19,20,21,22,22a-tetradecahydro-8H-7,10-methanocyclopropa[18,19][1,10,3,6]dioxadiazacyclononadecino[11,12-b]quinoxaline-8-carboxamide]
pKi [1]: 9.85
pKi [2]: 9.20
pEC50 [3]: 7.26
pEC50 [4]: 7.46
pEC50 [5]: 7.33
pEC50 [6]: 5.61
pEC50 [7]: 7.51
pEC50 [8]: 7.39
pEC50 [9]: 6.53
pEC50 [10]: 7.51
pEC50 [11]: 6.30
